Results on 33 compounds are retold here after PubChem BioAssay (NCI).

Some test systems named below: KM20L2 colon; DMS 114 small cell lung; SNB-78 CNS; M19-MEL melanoma; RXF-631 renal; LXFL 529 NSCLC; XF 498 CNS; MDA-N; HOP-18 NSCLC; SN12K1 renal; P388/ADR leukemia.
Common to all, as to assay: NCI tumour cell line growth inhibition, 48 h

“And” between values parts separate entries of the source, which are not always exact repeats. Equal entries are not always repeated.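 Tested at 5 concentrations; 48 h exposure; 96-well plates; endpoints linearly interpolated, else capped at highest concentration. GI50 = concentration required for 50% inhibition of growth. At the TGI there is no net growth.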

In the case of `BrC1=CC=C2NCCCCCCN=C3C=CC(Br)=CC=C3NCCCCCCN=C2C=C1`, the TGI in the test with KM20L2 colon, in the test with DMS 114 small cell lung, in the test with SNB-78 CNS, in the test on M19-MEL melanoma and in the test with RXF-631 renal was above 25.5 µM in each case.
On to `CC1(C)CC(=O)C(=[N+]=[N-])C(=O)C1`, for which the TGI with LXFL 529 NSCLC, with KM20L2 colon, in the test with DMS 114 small cell lung and in the test with XF 498 CNS was above 100 µM throughout.
In the case of `NCCP(=O)(O)O`, in the test with MDA-N, the TGI is above 100 µM.
On to `c1cc[c]([Sn]([S]c2cccc3cccnc23)([S]c2cccc3cccnc23)[c]2ccccc2)cc1`, for which the GI50 is 0.0782 µM in the test on LXFL 529 NSCLC; 0.193 µM with HOP-18 NSCLC; 0.164 µM in the test with DMS 114 small cell lung; 0.224 µM with SNB-78 CNS; 0.216 µM with M19-MEL melanoma; 0.159 µM with RXF-631 renal. In the test on XF 498 CNS, the GI50 was 0.155 µM. In addition, the TGI in the test with LXFL 529 NSCLC amounted to 0.211 µM; with HOP-18 NSCLC it was 0.481 µM; with DMS 114 small cell lung, 0.374 µM; in the test on SNB-78 CNS it was 0.68 µM; with M19-MEL melanoma, 0.542 µM; in the test with RXF-631 renal, 0.324 µM. Also, the TGI in the test on XF 498 CNS is 0.407 µM.
Take `CC(C(=O)c1ccc(Cl)cc1)C1OC(=O)C(Cl)=C1Cl` (stereo not drawn): the TGI in the test on LXFL 529 NSCLC is 40.6 µM; in the test with HOP-18 NSCLC, above 100 µM; with KM20L2 colon, above 100 µM; with DMS 114 small cell lung it was 76.7 µM; in the test with M19-MEL melanoma, 52.3 µM; in the test on RXF-631 renal it was above 100 µM. In the test on XF 498 CNS, this compound gave a TGI of 84.1 µM.
`NC(Cc1ccnnc1)C(=O)O` (stereo not drawn) had a TGI in the test with MDA-N above 100 µM.
The compound `CCc1c(O)c2c(c(O)c1C(C)=O)C(=O)c1c(cc(O)c(C(=O)O)c1C(=O)O)C2=O` showed a TGI in the test with MDA-N above 100 µM.
With `CCCCN(CCCC)C(=O)C(=O)C(C)C(=O)CC` (stereo not drawn), the TGI with LXFL 529 NSCLC, in the test on KM20L2 colon, in the test on SNB-78 CNS and with XF 498 CNS was above 100 µM in each case.
In the test on MDA-N, `O=C(O)c1cscc1Cc1cccs1` registered a TGI above 100 µM.
Turning to `CN1CCN(CCNc2ccc(CO)c3sc4ccccc4c(=O)c23)CC1`, the TGI with LXFL 529 NSCLC worked out at 22.6 µM; in the test with KM20L2 colon it was 17.7 µM; with DMS 114 small cell lung, 22.9 µM; with M19-MEL melanoma, 25.7 µM.
Take `CCCCCC(O)(CCCCC)CCCCCCCCC1=C(O)c2[nH]c(=O)ccc2C(=O)C1=O`: the TGI with LXFL 529 NSCLC came out at 15.7 µM; in the test on KM20L2 colon, 27.9 µM; in the test with DMS 114 small cell lung, 16.5 µM; in the test on SNB-78 CNS it was 57.8 µM; in the test with M19-MEL melanoma it was 13.8 µM; in the test on RXF-631 renal, 23.8 µM. In addition, the TGI in the test on XF 498 CNS was 16 µM.
`Cc1cc(C)c2c(SCc3ccc(Cl)cc3Cl)nc(N)nc2n1` came in with a TGI in the test with MDA-N above 100 µM.
Regarding `COc1cc(Cl)c2c3c(c(C(=O)c4ccccc4)oc13)CCC2`, the TGI with LXFL 529 NSCLC, in the test with HOP-18 NSCLC, in the test on KM20L2 colon, in the test with DMS 114 small cell lung, in the test on SNB-78 CNS and in the test with M19-MEL melanoma was above 100 µM in each case. The compound also returned a TGI in the test on XF 498 CNS above 100 µM.
In the test with MDA-N, `C1=C(c2ccccc2)SC=C(c2ccccc2)S1` gave a TGI of 36.5 µM.
For the compound `COc1cc2c([C@@H](OC(=O)c3ccccc3)c3ccc4c(c3)OCO4)nccc2c(OC)c1OC`, the TGI was above 100 µM in the test on LXFL 529 NSCLC; above 100 µM with HOP-18 NSCLC; above 100 µM in the test on KM20L2 colon; 84.1 µM with DMS 114 small cell lung; above 100 µM with SNB-78 CNS; above 100 µM in the test on M19-MEL melanoma. Besides, the results for the TGI in the test with RXF-631 renal and in the test with XF 498 CNS were above 100 µM and 90.9 µM, respectively.
In turn, `CC(C)(C)[Si](C)(C)OCC1C=CC(n2cnc3c(N)ncnc32)O1` (stereo not drawn) registered a TGI with MDA-N of 85.9 µM.
With `C#C[C@H](CCCC)OC(=O)N[C@H](C)c1ccccc1`, the TGI with LXFL 529 NSCLC is above 100 µM; with HOP-18 NSCLC, above 100 µM; in the test on KM20L2 colon, above 100 µM; in the test on DMS 114 small cell lung it was 81 µM; in the test on SNB-78 CNS, above 100 µM; with M19-MEL melanoma, 93.8 µM. The TGI in the test with RXF-631 renal and in the test with XF 498 CNS was above 100 µM in each case.
For the compound `O=c1c2ccccc2nc(-c2ccccc2)n1O`, in the test with MDA-N, the TGI was above 100 µM.
Compound `O=S(=O)(O)/C(=C\c1ccccc1)c1ccccc1` (tested in a mixture with another compound) registered a TGI in the test with MDA-N above 100 µM.
Turning to `Cc1ccc(NC(=O)C2C(=O)N(c3ccc(C)c(C)c3)C(=O)/C2=N\NC(N)=S)cc1C` (stereo not drawn), the TGI in the test on LXFL 529 NSCLC, with KM20L2 colon, with SNB-78 CNS, in the test on M19-MEL melanoma, in the test on RXF-631 renal and with XF 498 CNS was above 100 µM in each case.
With `O=C(O)/C(=C\c1ccccc1Cl)S(=O)(=O)c1ccccc1`, the TGI in the test with LXFL 529 NSCLC, in the test with HOP-18 NSCLC, in the test with KM20L2 colon, with DMS 114 small cell lung, in the test on SNB-78 CNS and in the test with M19-MEL melanoma was above 100 µM throughout. Moreover, in the test with RXF-631 renal, the TGI was above 100 µM.
In the case of `c1cc(-c2cn[nH]c2)cc(-c2cn[nH]c2)c1`, the TGI in the test on KM20L2 colon, in the test on DMS 114 small cell lung, in the test with SNB-78 CNS, in the test with M19-MEL melanoma and in the test on RXF-631 renal was above 100 µM throughout.
On to `CC1CCP(=O)(c2ccccc2)CC1` (stereo not drawn), for which the TGI in the test on LXFL 529 NSCLC, in the test on KM20L2 colon, with DMS 114 small cell lung, in the test on SNB-78 CNS, in the test on M19-MEL melanoma and in the test with RXF-631 renal was above 100 µM throughout. The TGI with XF 498 CNS is above 100 µM.
`CC(O)(CNS(=O)(=O)c1ccccc1)c1ccccc1` (stereo not drawn) gave a TGI in the test with MDA-N above 100 µM.
Take `CCOc1ccc2ccc3cccnc3c2n1`: the TGI in the test with MDA-N was above 100 µM.
Same read-out and setting: to `COC1C(O)C(C)OC(OC2CC3CCC4C(CCC5(C)C(C6=CC(=O)OC6)CCC45O)C3(O)C(OC(C)=O)C2)C1O` (stereo not drawn) belongs 5.05 µM.
Consider `Cn1c2ccccc2c(=O)c2c([N+](=O)[O-])ccc(NCCN)c21`, for which the TGI in the test on LXFL 529 NSCLC worked out at 21.1 µM; in the test on HOP-18 NSCLC, 26.4 µM; with KM20L2 colon, 24.1 µM; with DMS 114 small cell lung it was 26.4 µM; with SNB-78 CNS, 31.3 µM; in the test on M19-MEL melanoma it was 26 µM. The compound further had a TGI with XF 498 CNS of 28.7 µM.
Consider `COc1ccc(/C=C(/C)[N+](=O)[O-])cc1`, for which, in the test on MDA-N, the TGI is 5.25 µM.
Same read-out and setting: to `COc1cc(NCC2COc3c(ccc(OC)c3OC)C2=O)c([N+](=O)[O-])cc1OC` (stereo not drawn) belongs above 100 µM.
Regarding `CC(=O)[C-](C(C)=O)c1ccccc1.CC(=O)[C-](C(C)=O)c1ccccc1.CC[O-].CC[O-].[Ti+4]`, in the test with KM20L2 colon, the GI50 is above 100 µM and the TGI was above 100 µM.
In the test on MDA-N, `CC(=O)OC1CCC2(C)C(=CCC3C4CCC5(OC6CC(C)CN(C(C)=O)C6C5C)C(C)=C4C(=O)C32)C1` (stereo not drawn) yielded a TGI of 48.6 µM.
Turning to `O=C1C(=O)c2ccccc2C(O)=C1CC=C(Cl)Cl`, the TGI in the test with HOP-18 NSCLC is 148 µM; in the test on KM20L2 colon, 200 µM; in the test on DMS 114 small cell lung it was 51.7 µM and 70.5 µM; in the test with SN12K1 renal, 113 µM; in the test on SNB-78 CNS it was 55.7 µM and 204 µM; with M19-MEL melanoma, 25.9 µM and 93.8 µM. The TGI with P388/ADR leukemia was 49.9 µM; in the test with MDA-N it was 34.9 µM and 172 µM; in the test on XF 498 CNS, 49.2 µM and 131 µM. The GI50 was 7.04 µM in the test with KM20L2 colon; 14.5 µM in the test with DMS 114 small cell lung; 11.5 µM with SNB-78 CNS; 9.49 µM in the test on M19-MEL melanoma; 6.74 µM in the test with MDA-N; 12.8 µM in the test on XF 498 CNS.
As for `COc1ccc(C(=O)C(C(=O)C(=O)Nc2nccs2)c2ccc(OC)cc2)cc1` (stereo not drawn), the TGI in the test with LXFL 529 NSCLC, with HOP-18 NSCLC, with KM20L2 colon, with DMS 114 small cell lung, in the test with SNB-78 CNS and in the test on XF 498 CNS was above 100 µM throughout.
